15 compounds from US10399940B2, “Substituted pyrrolidines and methods of use” (AbbVie S.à.r.l., priority 2016, dated 2019) can be followed below.

The structures appear in SMILES notation. Like-named read-outs stand apart in the source and are kept apart here.

This experiment has as its target T1, F508delCFTR (Homo sapiens, UniProt P13569, DEL508-508).
T1 construct: expressed in transfected cells; host or cells: CFBE41o- (human lung derived epithelial cell line), doxycycline-inducible expression
Kind of experiment: Cell Surface Expression-Horse Radish Peroxidase (CSE-HRP) assay. Type of experiment: cell-based. The following applies: CFBE41o-F508delCFTR-HRP cells; for Maximum % activity (with co-corrector): with co-corrector (2 μM); for Maximum % activity (with co-corrector) / Maximum % activity (without co-corrector): normalized to on-plate positive control, highest concentration 20 μM. An outline of the steps:
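CFBE41o- cells expressed F508delCFTR with HRP in the fourth exofacial loop, induced by 0.5 μg/mL doxycycline for 72 h at 37 °C. Compounds alone or with 2 μM co-corrector ran 18–24 h at 33 °C, 8-point 3-fold from 20 μM. Washed-cell luminol luminescence was normalized to DMSO and positive control, fitted sigmoidally for EC50 (three plates).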

[1] abbreviates: test compound without co-corrector, 18-24 hours at 33° C., read-out: EC50 (without co-corrector).
Where [2] appears, read: with co-corrector (2 μM of 3-[(2R,4R)-4-({[1-(2,2-difluoro-1,3-benzodioxol-5-yl)cyclopropyl]carbonyl}amino)-7-methoxy-3,4-dihydro-2H-chromen-2-yl]benzoic acid), read-out: EC50 (with co-corrector).

T1 sequence (P13569 with tags, fused parts or gaps DEL508-508): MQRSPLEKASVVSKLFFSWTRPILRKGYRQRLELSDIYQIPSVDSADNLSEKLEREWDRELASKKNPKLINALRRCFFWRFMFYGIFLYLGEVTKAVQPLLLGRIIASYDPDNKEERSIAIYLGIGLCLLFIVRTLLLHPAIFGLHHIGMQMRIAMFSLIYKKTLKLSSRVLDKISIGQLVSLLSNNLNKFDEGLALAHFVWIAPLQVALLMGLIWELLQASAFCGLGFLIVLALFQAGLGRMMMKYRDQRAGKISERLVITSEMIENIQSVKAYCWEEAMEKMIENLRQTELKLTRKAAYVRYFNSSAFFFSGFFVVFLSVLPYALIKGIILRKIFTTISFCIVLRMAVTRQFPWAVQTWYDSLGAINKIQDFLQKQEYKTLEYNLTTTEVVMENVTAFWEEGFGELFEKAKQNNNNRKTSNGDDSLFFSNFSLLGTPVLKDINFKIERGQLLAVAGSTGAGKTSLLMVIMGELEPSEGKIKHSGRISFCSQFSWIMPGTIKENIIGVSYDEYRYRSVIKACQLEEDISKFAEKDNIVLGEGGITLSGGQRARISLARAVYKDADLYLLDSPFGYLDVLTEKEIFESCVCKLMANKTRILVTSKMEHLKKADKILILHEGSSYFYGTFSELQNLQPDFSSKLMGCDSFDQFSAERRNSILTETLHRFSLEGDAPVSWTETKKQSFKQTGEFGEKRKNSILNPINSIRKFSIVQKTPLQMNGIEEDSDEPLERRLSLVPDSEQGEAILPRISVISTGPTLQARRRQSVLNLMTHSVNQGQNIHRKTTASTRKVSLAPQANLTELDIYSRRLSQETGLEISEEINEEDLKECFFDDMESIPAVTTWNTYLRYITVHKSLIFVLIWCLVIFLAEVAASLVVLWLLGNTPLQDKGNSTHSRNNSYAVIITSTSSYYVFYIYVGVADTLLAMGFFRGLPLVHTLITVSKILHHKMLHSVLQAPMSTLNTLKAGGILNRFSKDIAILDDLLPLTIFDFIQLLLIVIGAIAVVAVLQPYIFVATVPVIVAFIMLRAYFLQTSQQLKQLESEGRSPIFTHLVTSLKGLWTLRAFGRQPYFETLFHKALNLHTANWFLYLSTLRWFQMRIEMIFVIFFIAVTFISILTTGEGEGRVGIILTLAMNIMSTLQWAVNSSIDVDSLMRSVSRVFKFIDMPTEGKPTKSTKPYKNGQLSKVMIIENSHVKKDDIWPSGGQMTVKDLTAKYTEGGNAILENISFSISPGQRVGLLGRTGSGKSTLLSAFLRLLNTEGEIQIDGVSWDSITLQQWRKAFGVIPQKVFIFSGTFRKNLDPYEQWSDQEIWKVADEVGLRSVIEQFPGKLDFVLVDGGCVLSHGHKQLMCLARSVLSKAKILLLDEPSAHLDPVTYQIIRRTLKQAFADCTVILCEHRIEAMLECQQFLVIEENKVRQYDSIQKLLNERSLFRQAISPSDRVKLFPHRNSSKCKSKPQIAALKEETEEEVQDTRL

Regarding `COc1ncc(C2CCC2)cc1CO[C@H]1[C@H](C(C)(C)C)[C@@H](C(=O)O)N(C(=O)[C@@H]2CCCO2)[C@H]1c1ccccc1C(F)(F)F` [Example 155, (2S,3R,4S,5S)-3-tert-butyl-4-[(5-cyclobutyl-2-methoxypyridin-3-yl)methoxy]-1-[(2S)-oxolane-2-carbonyl]-5-[2-(trifluoromethyl)phenyl]pyrrolidine-2-carboxylic acid], the “Maximum % activity (with co-corrector)” value is “+++ (≥350)”; the “Maximum % activity (without co-corrector)” value was “++ (≥100 and <200)”. Besides, the EC50 – broadly, the concentration needed to bring the measured effect to its halfway point – under setting [1] lay within 1000 to 10000 nM. The EC50 under setting [2] was under 1000 nM.
In the case of `COc1ncc(C(F)(F)F)cc1CO[C@H]1[C@H](C(C)(C)C)[C@@H](C(=O)O)N(C(=O)[C@H]2CCCCO2)[C@H]1c1ccccc1C(C)C` [Example 97, (2S,3R,4S,5S)-3-tert-butyl-4-{[2-methoxy-5-(trifluoromethyl)pyridin-3-yl]methoxy}-1-[(2R)-oxane-2-carbonyl]-5-[2-(propan-2-yl)phenyl]pyrrolidine-2-carboxylic acid], the “Maximum % activity (with co-corrector)” value is on record as “+++ (≥350)”; the “Maximum % activity (without co-corrector)” value is “++ (≥100 and <200)”. The EC50 under setting [1] lay within 1000 to 10000 nM. Under setting [2], the EC50 was in the range of 1000 to 10000 nM.
With `COc1ncc(N2CCCCC2)cc1CO[C@H]1[C@H](C(C)(C)C)[C@@H](C(=O)O)N(C(=O)OC(C)C)[C@H]1c1ccccc1` [Example 81, (2S,3R,4S,5S)-3-tert-butyl-4-{[2-methoxy-5-(piperidin-1-yl)pyridin-3-yl]methoxy}-5-phenyl-1-{[(propan-2-yl)oxy]carbonyl}pyrrolidine-2-carboxylic acid], the “Maximum % activity (with co-corrector)” value was “++ (≥150 and <350)”; the “Maximum % activity (without co-corrector)” value was “+ (<100)”. For the same compound, the EC50 under setting [1] lay within 1000 to 10000 nM. In addition, under setting [2], the EC50 fell in the range of 1000 to 10000 nM.
`COc1ncc(C(F)(F)F)cc1CO[C@H]1[C@H](C(C)(C)C)[C@@H](C(=O)O)N(C(=O)[C@@H]2CCCO2)[C@H]1c1cccnc1OC(C)C` [Example 146, (2S,3R,4S,5S)-3-tert-butyl-4-{[2-methoxy-5-(trifluoromethyl)pyridin-3-yl]methoxy}-1-[(2S)-oxolane-2-carbonyl]-5-{2-[(propan-2-yl)oxy]pyridin-3-yl}pyrrolidine-2-carboxylic acid]: the “Maximum % activity (with co-corrector)” value is “++ (≥150 and <350)”; the “Maximum % activity (without co-corrector)” value was “+ (<100)”. The EC50 under setting [1] was in the range of 1000 to 10000 nM. The EC50 under setting [2] is under 1000 nM.
For the compound `COc1ncc(C(F)(F)F)cc1CO[C@H]1[C@H](C(C)(C)C)[C@@H](C(=O)O)N(C(=O)C2CCCCC2)[C@H]1c1cccc2c1OC(C)(C)C2` [Example 257, (2S,3R,4S,5S)-3-tert-butyl-1-(cyclohexanecarbonyl)-5-(2,2-dimethyl-2,3-dihydro-1-benzofuran-7-yl)-4-{[2-methoxy-5-(trifluoromethyl)pyridin-3-yl]methoxy}pyrrolidine-2-carboxylic acid], the “Maximum % activity (with co-corrector)” value is “++ (≥150 and <350)”; the “Maximum % activity (without co-corrector)” value is “+ (<100)”. Further, the EC50 under setting [1] was under 1000 nM. For the same compound, the EC50 under setting [2] was under 1000 nM.
In the case of `COc1ccc(C(F)(F)F)cc1CO[C@H]1[C@H](C(C)(C)C)[C@@H](C(=O)O)N(C(=O)[C@H]2CCC[C@H](OC)C2)[C@H]1c1ccccc1` [Example 30, (2S,3R,4S,5S)-3-tert-butyl-1-[(1S,3S)-3-methoxycyclohexane-1-carbonyl]-4-{[2-methoxy-5-(trifluoromethyl)phenyl]methoxy}-5-phenylpyrrolidine-2-carboxylic acid], the “Maximum % activity (with co-corrector)” value is reported as “+++ (≥350)”; the “Maximum % activity (without co-corrector)” value is “++ (≥100 and <200)”. Further, the EC50 under setting [1] fell in the range of 1000 to 10000 nM. Besides, the EC50 under setting [2] was under 1000 nM.
In the case of `COc1ncc(C(F)(F)F)cc1CO[C@@H]1[C@@H](C(C)(C)C)[C@H](C(=O)O)N(C(=O)C2CCCCC2)[C@@H]1c1ccccc1` (racemic) [Example 20, rac-(2R,3S,4R,5R)-3-tert-butyl-1-(cyclohexanecarbonyl)-4-{[2-methoxy-5-(trifluoromethyl)pyridin-3-yl]methoxy}-5-phenylpyrrolidine-2-carboxylic acid], the “Maximum % activity (with co-corrector)” value is given as “+++ (≥350)”; the “Maximum % activity (without co-corrector)” value is “++ (≥100 and <200)”. Also, the EC50 under setting [1] was under 1000 nM. The half-maximal effective concentration (EC50) under setting [2] is under 1000 nM.
Consider `COc1ncc(C(F)(F)F)cc1CO[C@H]1[C@H](C(C)(C)C)[C@@H](C(=O)O)N(C(=O)[C@@H]2CCCCO2)[C@H]1c1ccccc1-c1cncnc1` [Example 197, (2S,3R,4S,5S)-3-tert-butyl-4-{[2-methoxy-5-(trifluoromethyl)pyridin-3-yl]methoxy}-1-[(2S)-oxane-2-carbonyl]-5-[2-(pyrimidin-5-yl)phenyl]pyrrolidine-2-carboxylic acid], for which the “Maximum % activity (with co-corrector)” value was “++ (≥150 and <350)”; the “Maximum % activity (without co-corrector)” value is “+ (<100)”. Under setting [1], the EC50 is 1000 to 10000 nM. For the same compound, the 50% effective concentration (EC50) under setting [2] was 1000 to 10000 nM.
`COc1ncc(C(F)(F)F)cc1CO[C@H]1[C@H](C(C)(C)OC)[C@@H](C(=O)O)N(C(=O)C2CCCCC2)[C@H]1c1ccccc1C(C)C` [Example 258, (2S,3R,4S,5S)-1-(cyclohexanecarbonyl)-3-(2-methoxypropan-2-yl)-4-{[2-methoxy-5-(trifluoromethyl)pyridin-3-yl]methoxy}-5-[2-(propan-2-yl)phenyl]pyrrolidine-2-carboxylic acid]: the “Maximum % activity (with co-corrector)” value was “+++ (≥350)” and the “Maximum % activity (without co-corrector)” value is recorded as “+++ (≥200)”. Moreover, the EC50 under setting [1] was under 1000 nM. Further, the EC50 under setting [2] is under 1000 nM.
For `COc1ncc(C(F)(F)F)cc1CO[C@H]1[C@H](C(C)(C)C)[C@@H](C(=O)O)N(C(=O)[C@@H]2CCCCO2)[C@H]1c1ccccc1-c1ccc(C#N)cc1` [Example 207, (2S,3R,4S,5S)-3-tert-butyl-5-(4′-cyano[1,1′-biphenyl]-2-yl)-4-{[2-methoxy-5-(trifluoromethyl)pyridin-3-yl]methoxy}-1-[(2S)-oxane-2-carbonyl]pyrrolidine-2-carboxylic acid], the “Maximum % activity (with co-corrector)” value is on record as “+++ (≥350)”; the “Maximum % activity (without co-corrector)” value was “++ (≥100 and <200)”. Further, the EC50 under setting [1] was in the range of 1000 to 10000 nM. Also, the EC50 under setting [2] fell in the range of 1000 to 10000 nM.
On to `COc1ncc(C(F)(F)F)cc1CO[C@H]1[C@H](C(C)(C)OC)[C@@H](C(=O)O)N(C(=O)[C@@H]2CCCCO2)[C@H]1c1ccccc1C(C)C` [Example 260, (2S,3R,4S,5S)-3-(2-methoxypropan-2-yl)-4-{[2-methoxy-5-(trifluoromethyl)pyridin-3-yl]methoxy}-1-[(2S)-oxane-2-carbonyl]-5-[2-(propan-2-yl)phenyl]pyrrolidine-2-carboxylic acid], for which the “Maximum % activity (with co-corrector)” value was “+++ (≥350)” and the “Maximum % activity (without co-corrector)” value is “+++ (≥200)”. Further, the EC50 under setting [1] was under 1000 nM. Under setting [2], the EC50 is under 1000 nM.
On to `COc1ccc(C(C)(C)C)cc1CO[C@H]1[C@H](C(C)(C)OC)[C@@H](C(=O)O)N(C(=O)[C@@H]2CCCCO2)[C@H]1c1ccccc1C(C)C` [Example 270, (2S,3R,4S,5S)-4-[(5-tert-butyl-2-methoxyphenyl)methoxy]-3-(2-methoxypropan-2-yl)-1-[(2S)-oxane-2-carbonyl]-5-[2-(propan-2-yl)phenyl]pyrrolidine-2-carboxylic acid], for which the “Maximum % activity (with co-corrector)” value is on record as “+++ (≥350)” and the “Maximum % activity (without co-corrector)” value was “+++ (≥200)”. The EC50 under setting [1] is under 1000 nM. The EC50 under setting [2] is under 1000 nM.
As for `COc1ccc(C(F)(F)F)cc1CO[C@H]1[C@H](C(C)(C)C)[C@@H](C(=O)O)N(C(=O)N(C(C)C)C(C)C)[C@H]1c1ccccc1` (single isomer, unassigned) [Example 9, (2S*,3R*,4S*,5S*)-3-tert-butyl-1-[di(propan-2-yl)carbamoyl]-4-{[2-methoxy-5-(trifluoromethyl)phenyl]methoxy}-5-phenylpyrrolidine-2-carboxylic acid], the “Maximum % activity (with co-corrector)” value was “+ (<150)” and the “Maximum % activity (without co-corrector)” value was “+ (<100)”. Moreover, the EC50 under setting [1] was over 10000 nM. For the same compound, under setting [2], the EC50 was over 10000 nM.
Regarding `COc1ncc(C2CCC2)cc1CO[C@H]1[C@H](C(C)(C)C)[C@@H](C(=O)O)N(C(=O)C2CCOCC2)[C@H]1c1ccccc1C1CC1` [Example 150, (2S,3R,4S,5S)-3-tert-butyl-4-[(5-cyclobutyl-2-methoxypyridin-3-yl)methoxy]-5-(2-cyclopropylphenyl)-1-(oxane-4-carbonyl)pyrrolidine-2-carboxylic acid], the “Maximum % activity (with co-corrector)” value is on record as “+++ (≥350)”; the “Maximum % activity (without co-corrector)” value was “++ (≥100 and <200)”. Under setting [1], the EC50 lay in the range of 1000 to 10000 nM. Further, the EC50 under setting [2] is under 1000 nM.
Take `CCc1ccccc1[C@H]1[C@@H](OCC#Cc2cc(C(F)(F)F)cnc2OC)[C@H](C(C)(C)C)[C@@H](C(=O)O)N1C(=O)[C@@H]1CCCCO1` [Example 278, (2S,3R,4S,5S)-3-tert-butyl-5-(2-ethylphenyl)-4-({3-[2-methoxy-5-(trifluoromethyl)pyridin-3-yl]prop-2-yn-1-yl}oxy)-1-[(2S)-oxane-2-carbonyl]pyrrolidine-2-carboxylic acid]: the “Maximum % activity (with co-corrector)” value is reported as “+++ (≥350)”; the “Maximum % activity (without co-corrector)” value was “++ (≥100 and <200)”. Further, the EC50 under setting [1] was in the range of 1000 to 10000 nM. Moreover, under setting [2], the EC50 is under 1000 nM.
